In patent US11207420B2, “Cytotoxin and conjugate, uses of same and preparation method therefor” (priority 2017, dated 2021):
pEC50: −log10 of the molar value. Square brackets hold non-standard residues; d marks the D form. Peptide text beside a SMILES is read from it. * marks the point of attachment. ξ: configuration not given here. Dolaproine = CO[C@@H]([C@@H]1CCCN1)[C@@H](C)C(=O)O; Dil = CC[C@H](C)[C@H](NC)[C@@H](CC(=O)O)OC; d(β3hF) = N[C@@H](CC(=O)O)Cc1ccccc1; NH(4-aminobenzyl) = Nc1ccc(CN*)cc1; NMe2Val = CC(C)[C@@H](C(=O)*)N(C)C; β3hF = N[C@H](CC(=O)O)Cc1ccccc1; NMeV = CN[C@H](C(=O)O)C(C)C; ξF = NC(Cc1ccccc1)C(=O)O; X1 = CN(Cc1ccc(N)cc1)*

Tests used:
MDA-MB-468 = assay: Inhibitory effect of small molecule toxins on cell proliferation in vitro (CCK8); type: cell-based; settings: MDA-MB-468, 7500 cells/well, 4 days
Procedure: (§1) First, tumor cells MDA-MB-468 and NCI-H322M were cultured; the small molecule toxins of the present invention, maytansin derivative (DM1, Nanjing Lianning), monomethyl auristatin F (MMAF, Nanjing Lianning) were co-cultured respectively with the tumor cells. Then, CCK8 reagent (Dongren Chemical Technology Co., Ltd.) was added, followed by detection with the microplate reader (manufacturer: Molecular Devices, model: SpectraMax M2) (wavelength: 450 nm). The activity of dehydrogenase in mitochondria was detected, to evaluate the inhibitory effect of small molecule toxins on cell proliferation.
(§2) Test of cell activity in vitro: toxins were diluted (10 concentration gradients) with the corresponding test medium (containing 2% FBS). Tumor cells were trypsinized by a conventional method using trypsin, and cells were collected by tube and resuspended in the corresponding test medium (containing 2% FBS). The diluted toxins were added to a 96-well plate, to which were added the cells. Thereafter, 20 μL of CCK8 reagent was added to each well, and reaction was carried out for 4 hours, followed by detection with the microplate reader (wavelength: 450 nm).

NCI-H322M = assay: as above; type: cell-based; settings: 5000 cells/well, 3 days, starting at 20000 nM, 5-fold dilution
Procedure: as §1, §2

[1] = Homo sapiens, MDA-MB-468, 96 h, Table 3, starting at 10 nM, 2-fold dilution
[2] = Table 2, 3-fold dilution starting at 10000 nM (T001: 500 nM)

SMILES	pEC50 (MDA-MB-468; [1])	further results
CC[C@H](C)[C@@H]([C@@H](CC(=O)N1CCC[C@H]1[C@H](OC)[C@@H](C)C(=O)N[C@H](C(=O)NCc1ccc(N)cc1)C(C)C)OC)N(C)C(=O)[C@@H](NC(=O)[C@H](C(C)C)N(C)C)C(C)C [Example T019] (NMe2Val-V[Dil][Dolaproine]V-{NH(4-aminobenzyl)})	8.94	
CC[C@H](C)[C@@H]([C@@H](CC(=O)N1CCC[C@H]1[C@H](OC)[C@@H](C)C(=O)N[C@H](CC(=O)NCc1ccc(N)cc1)Cc1ccccc1)OC)N(C)C(=O)[C@@H](NC(=O)[C@H](C(C)C)N(C)C)C(C)C [Example T013, (S)—N-((3R,4S,5 S)-1-((S)-2-((1R,2R)-3-(((S)-4-((4-aminobenzyl)amino)-4-oxo-1-phenylbut-2-yl)amino)-1-methoxy-2-methyl-3-oxopropyl)pyrrolidin-1-yl)-3-methoxy-5-methyl-1-oxoheptyl-4-yl)-2-((S)-2-(dimethylamino)-3-methylbutyramido)-N,3-dimethylbutyramide] (NMe2Val-V[Dil][Dolaproine][β3hF]-{NH(4-aminobenzyl)})	9.38	
CC[C@H](C)[C@@H]([C@@H](CC(=O)N1CCC[C@H]1[C@H](OC)[C@@H](C)C(=O)N[C@@H](C)C(=O)NCc1ccc(N)cc1)OC)N(C)C(=O)[C@@H](NC(=O)[C@H](C(C)C)N(C)C)C(C)C [Example T016] (NMe2Val-V[Dil][Dolaproine]A-{NH(4-aminobenzyl)})	8.24	
CC[C@H](C)[C@@H]([C@@H](CC(=O)N1CCC[C@H]1[C@H](OC)[C@@H](C)C(=O)N[C@@H](CC(=O)NCc1ccc(N)cc1)Cc1ccccc1)OC)N(C)C(=O)[C@@H](NC(=O)[C@H](C(C)C)N(C)C)C(C)C [Example T014, (S)—N-((3R,4S,5 S)-1-((S)-2-((1R,2R)-3-(((R)-4-((4-aminobenzyl)amino)-4-oxo-1-phenylbut-2-yl)amino)-1-methoxy-2-methyl-3-oxopropyl)pyrrolidin-1-yl)-3-methoxy-5-methyl-1-oxoheptyl-4-yl)-2-((S)-2-(dimethylamino)-3-methylbutyramido)-N,3-dimethylbutyramide] (NMe2Val-V[Dil][Dolaproine][d(β3hF)]-{NH(4-aminobenzyl)})	8.91	
CC[C@H](C)[C@@H]([C@@H](CC(=O)N1CCC[C@H]1[C@H](OC)[C@@H](C)C(=O)N[C@@H](CC(C)C)C(=O)NCc1ccc(N)cc1)OC)N(C)C(=O)[C@@H](NC(=O)[C@H](C(C)C)N(C)C)C(C)C [Example T018] (NMe2Val-V[Dil][Dolaproine]L-{NH(4-aminobenzyl)})	8.63	
CC[C@H](C)[C@@H]([C@@H](CC(=O)N1CCC[C@H]1[C@H](OC)[C@@H](C)C(=O)N[C@@H](Cc1ccccc1)C(=O)NCc1ccc(N)cc1)OC)N(C)C(=O)[C@@H](NC(=O)[C@H](C(C)C)N(C)C)C(C)C [Example T011] (NMe2Val-V[Dil][Dolaproine]F-{NH(4-aminobenzyl)})	9.68	
CC[C@H](C)[C@@H]([C@@H](CC(=O)N1CCC[C@H]1[C@H](OC)[C@@H](C)C(=O)N[C@H](Cc1ccccc1)C(=O)N(C)Cc1ccc(N)cc1)OC)N(C)C(=O)[C@@H](NC(=O)[C@H](C(C)C)N(C)C)C(C)C [Example T002, (S)—N-((3R,4 S,5 S)-1-((S)-2-((1R,2R)-3-(((R)-1-((4-aminobenzyl)(methyl)amino)-1-oxo-3-phenylprop-2-yl)amino)-1-methoxy-2-methyl-3-propionyl)pyrrolidin-1-yl)-3-methoxy-5-methyl-1-heptanoyl-4-yl)-2-((S)-2-(dimethylamino)-3-methylbutyramido)-N,3-dimethylbutyramide] (NMe2Val-V[Dil][Dolaproine][dF]-X1)	< 8.00	
CC[C@H](C)[C@@H]([C@@H](CC(=O)N1CCC[C@H]1[C@H](OC)[C@@H](C)C(=O)N[C@@H](Cc1ccccc1)C(=O)N(C)Cc1ccc(N)cc1)OC)N(C)C(=O)[C@@H](NC(=O)[C@H](C(C)C)N(C)C)C(C)C [Example T003, (S)—N-((3R,4S,5 S)-1-((S)-2-((1R,2R)-3-(((S)-1-((4-aminobenzyl)(methyl)amino)-1-oxo-3-phenylprop-2-yl)amino)-1-methoxy-2-methyl-3-propionyl)pyrrolidin-1-yl)-3-methoxy-5-methyl-1-heptanoyl-4-yl)-2-((S)-2-(dimethylamino)-3-methylbutyramido)-N,3-dimethylbutyramide] (NMe2Val-V[Dil][Dolaproine]F-X1)	8.49	
CC[C@H](C)[C@@H]([C@@H](CC(=O)N1CCC[C@H]1[C@H](OC)[C@@H](C)C(=O)N[C@@H](Cc1ccccc1)C(=O)O)OC)N(C)C(=O)[C@@H](NC(=O)[C@@H](NC)C(C)C)C(C)C [monomethyl auristatin F (MMAF), monomethyl auristatin F, reference compound] (H-[NMeV]V[Dil][Dolaproine]F-OH)		pEC50 (MDA-MB-468; [2]): 7.01; pEC50 (NCI-H322M): 6.93
CC[C@H](C)[C@@H]([C@@H](CC(=O)N1CCC[C@H]1[C@H](OC)[C@@H](C)C(=O)N[C@H](Cc1ccccc1)C(=O)NCc1ccc(N)cc1)OC)N(C)C(=O)[C@@H](NC(=O)[C@H](C(C)C)N(C)C)C(C)C [Example T012] (NMe2Val-V[Dil][Dolaproine][dF]-{NH(4-aminobenzyl)})	8.79	
CC[C@H](C)[C@@H]([C@@H](CC(=O)N1CCC[C@H]1[C@H](OC)[C@@H](C)C(=O)NCC(=O)NCc1ccc(N)cc1)OC)N(C)C(=O)[C@@H](NC(=O)[C@H](C(C)C)N(C)C)C(C)C [Example T015, (S)—N-((3R,4S,5 S)-1-((S)-2-((1R,2R)-3-((2-((4-aminobenzyl)amino)-2-oxoethyl)amino)-1-methoxy-2-methyl-3-oxopropyl)pyrrolidin-1-yl)-3-methoxy-5-methyl-1-oxoheptyl-4-yl)-2-((S)-2-(dimethylamino)-3-methylbutyramido)-N,3-dimethylbutyramide] (NMe2Val-V[Dil][Dolaproine]G-{NH(4-aminobenzyl)})	8.13	
CC[C@H](C)[C@@H]([C@@H](CC(=O)N1CCC[C@H]1[C@H](OC)[C@@H](C)C(=O)NC(Cc1ccccc1)C(=O)NCc1ccc(N)cc1)OC)N(C)C(=O)[C@@H](NC(=O)[C@H](C(C)C)N(C)C)C(C)C (stereo partly drawn) [Example T001, (2S)—N-((3R,4S,5 S)-1-((2S)-2-((1R,2R)-3-((1-((4-aminobenzyl)amino)-1-oxo-3-phenylprop-2-yl)amino)-1-methoxy-2-methyl-3-propionyl)pyrrolidin-1-yl)-3-methoxy-5-methyl-1-heptanoyl-4-yl)-2-((S)-2-(dimethylamino)-3-methylbutyramido)-N,3-dimethylbutyramide] (NMe2Val-V[Dil][Dolaproine][ξF]-{NH(4-aminobenzyl)})	8.95	pEC50 (MDA-MB-468; Homo sapiens, MDA-MB-468, 96 h, Table 2, 3-fold dilution starting at 10000 nM (T001: 500 nM)): 9.27; pEC50 (NCI-H322M; Homo sapiens, 72 h): 8.70
COc1cc2cc(c1Cl)N(C)C(=O)C[C@H](OC(=O)[C@H](C)N(C)C(=O)CCS)[C@]1(C)O[C@H]1[C@H](C)[C@@H]1C[C@@](O)(NC(=O)O1)[C@H](OC)/C=C/C=C(\C)C2 [maytansin derivative (DM1), reference compound]		pEC50 (MDA-MB-468; [2]): 8.12; pEC50 (NCI-H322M): 7.41
